US20210290575A1, “METHODS AND COMPOSITIONS FOR IDENTIFICATION AND MODULATION OF MICROBIOME BIOCHEMICAL PATHWAYS TO ALTER PHENOTYPE” (Cybele Microbiome, Inc., priority 2017, published 2021)

Test system: Rhipicephalus microplus
Experiment: Tick repellency of compounds produced on tick-resistant versus tick-susceptible cattle breeds
Details: compound produced on host; ticks on cattle (Nelore vs Holstein)
Source text: The tick Rhipicephalus microplus specializes on cattle and other large bovids. However, success of its blood-feeding depends on the breed of the bovine host. In an indicine and a taurine breed of cattle that present contrasting phenotypes of infestation, Nelore and Holstein, respectively, resistant and susceptible to tick infestations as ascertained by the number of ticks and the reproductive success of female ticks completing their life-cycles on these two types of host.
At the same time, different levels of host immunity may affect the composition of tick saliva, contributing to these outcomes.

CC(=O)CCC=C(C)C [6-methyl-5-hepten-2-one]
repellency (result in words): repellent
